Assay results published in article PMC8213762, “An epitope-specific chemically defined nanoparticle vaccine for respiratory syncytial virus” (NPJ Vaccines, 2021).
“Also recorded” adds a separate entry of the source.

B1: 10D11: monoclonal antibody against V-306 generated in BALB/c mice (antibody, V domains shown)
VH: QVQLKESGPGLVAPSQSLSITCTVSGFSLTSYDISWIRQPPGKGLEWLGIIWNGGGTNYNSAFMSRLSINKDNSKSQVFLKMNSLQTDDTAIYYCVRGDYDYAWFDYWGQGTLVTVSA
VL: NIMMTQSPSSLTVSAGEKVTMSCKSSQSVLYGSNQKNYLAWYQQKPGQSPKLLIYWASTRDSGVPDRFTGSGSGTDFTLTISSVQAEDLAVYYCHQYLFSWTFGGGTKLEIK

Key:
palivizumab = assay: ELISA binding of palivizumab to coated V-306, V-306p or SVLP carrier; parameters: species or system humanized murine
Description: These ELISA were performed at the Center for Vaccinology (CEVAC), Ghent University and University Hospital, Belgium, based on the methods described above. […] Then 8 twofold serial dilutions of human serum were added. After washing, anti-human IgG Fc mAb-HRP (1/120,000 dilution) was added. After washing, TMB substrate was added. The color reaction was terminated by the addition of 1 N sulphuric acid. After 30 min the OD is read. The optical density for a given sample was used to extrapolate the Ab titer expressed in µg/mL. The coating conditions were optimized using IgG-depleted human serum spiked with known concentrations of palivizumab such that no further increase in signal is observed (saturation point) and no significant signal is seen in the negative control. The sensitivity of the assay was determined using different concentrations of palivizumab (from 0 to 200 µg/mL) and of anti-human IgG HRP-conjugated Ab (see Supplementary Fig. 5). The detection limit was 0.012207 µg/mL palivizumab (0.61 µg/mL in human serum diluted 1/50). The palivizumab-like Ab concentrations found in 20 different human sera (serum samples 001–020) are shown in Supplementary Fig. 5.

RSV A Tracy = RSV A Tracy microneutralization (MN) assay of mAbs; format: cell-based, respiratory syncytial virus; conditions: for MN titer: RSV A Tracy, HEp-2 cells, 50% reduction in viral cytopathic effect
Description: The RSV A Tracy MN assay was performed by Prof. Pedro Piedra at Baylor College of Medicine, Texas, USA. Heat-inactivated serum samples were analyzed for nAbs against RSV A/Tracy in HEp-2 cells using qualified MN assays as previously described[38]–[41]. nAb titers were defined as the final dilution at which there was a 50% reduction in viral cytopathic effect. Any serum sample resulting in a titer less than the lower limit of detection (LOD) (2.5 log2) was assigned a value of 2 log2.

RSV strain A2 = assay: Passive transfer challenge model, lung virus titer by plaque assay; format: in vivo; conditions: cotton rats n = 5, mAb 24 h before challenge with 10^4 PFU RSV A2, doses 1.0, 2.5, 5.0, 15 mg; lungs day 5; ****P ≤ 0.0001 vs PBS
Description: The challenge study comparing 10D11 and palivizumab was performed at Sigmovir Biosystems Inc. (MD, USA). Young adult male cotton rats (8, 6–8 weeks old) were treated IM with the mAb (1.0, 2.5, 5.0, or 15 mg doses). All animals were challenged with 100 µl RSV/A2 at 10^5 pfu per animal. After sacrificing the animals, nasal and lung tissue were harvested for viral titration using the RSV/A2 60% PRNT assay described above.

| Molecule | detection limit of ELISA (palivizumab; ELISA with palivizumab standard 0 to 200 µg/mL) [µg/mL] | detection limit of ELISA in human serum (palivizumab; human serum diluted 1/50) [µg/mL] | MN titer (RSV A Tracy) [log2] | reduction of RSV replication in lungs, passive transfer (RSV strain A2) | MN potency of 10D11 relative to palivizumab (fold) (RSV A Tracy; RSV A Tracy MN) |
| --- | --- | --- | --- | --- | --- |
| palivizumab: prophylactic humanized murine monoclonal nAb | 0.01221 | 0.61 | 5.0 | significantly reduced RSV replication in the lungs in a dose-dependent manner | – |
| B1 | – | – | 7.0 | significantly reduced RSV replication in the lungs in a dose-dependent manner; also recorded: reduced lung virus titers in a dose-dependent manner | approximately fourfold |
